Experiments:
Assay type in all cases: functional
Mythimna separata [1] = experiment: Stomach toxicity against third-instar Mythimna separata (Oriental armyworm) in compound treated fresh corn leaves assessed as insecticidal activity at 10 mg/L measured after 4 days by leaf-dip method
Mythimna separata [2] = experiment: Stomach toxicity against third-instar Mythimna separata (Oriental armyworm) in compound treated fresh corn leaves assessed as insecticidal activity at 100 mg/L measured after 4 days by leaf-dip method
Mythimna separata [3] = experiment: Stomach toxicity against third-instar Mythimna separata (Oriental armyworm) in compound treated fresh corn leaves assessed as insecticidal activity at 50 mg/L measured after 4 days by leaf-dip method
Mythimna separata [4] = experiment: Stomach toxicity against third-instar Mythimna separata (Oriental armyworm) in compound treated fresh corn leaves assessed as insecticidal activity at 25 mg/L measured after 4 days by leaf-dip method
Mythimna separata [5] = experiment: Stomach toxicity against third-instar Mythimna separata (Oriental armyworm) in compound treated fresh corn leaves assessed as insecticidal activity at 200 mg/L measured after 4 days by leaf-dip method
Plutella xylostella [6] = experiment: Stomach toxicity against third-instar Plutella xylostella (diamondback moth) in compound treated fresh cabbage leaves assessed as insecticidal activity at 200 mg/L measured after 3 days by leaf-dip method
Spodoptera exigua [7] = experiment: Stomach toxicity against third-instar Spodoptera exigua in compound treated fresh cabbage leaves assessed as insecticidal activity at 200 mg/L measured after 3 days by leaf-dip method
Ostrinia nubilalis = experiment: Stomach toxicity against third-instar Ostrinia nubilalis (European corn borer) in compound treated fresh corn leaves assessed as insecticidal activity at 200 mg/L measured after 4 days by leaf-dip method
Plutella xylostella [8] = experiment: Stomach toxicity against third-instar Plutella xylostella (diamondback moth) in compound treated fresh cabbage leaves assessed as insecticidal activity at 100 mg/L measured after 3 days by leaf-dip method
Spodoptera exigua [9] = experiment: Stomach toxicity against third-instar Spodoptera exigua in compound treated fresh cabbage leaves assessed as insecticidal activity at 50 mg/L measured after 3 days by leaf-dip method
Spodoptera exigua [10] = experiment: Stomach toxicity against third-instar Spodoptera exigua in compound treated fresh cabbage leaves assessed as insecticidal activity at 10 mg/L measured after 3 days by leaf-dip method
Spodoptera exigua [11] = experiment: Stomach toxicity against third-instar Spodoptera exigua in compound treated fresh cabbage leaves assessed as insecticidal activity at 100 mg/L measured after 3 days by leaf-dip method
Plutella xylostella [12] = experiment: Stomach toxicity against third-instar Plutella xylostella (diamondback moth) in compound treated fresh cabbage leaves assessed as insecticidal activity at 50 mg/L measured after 3 days by leaf-dip method

With `Cc1cc(C)cc(C(=O)N(NC(=O)c2ccccc2)C(C)(C)C)c1` the Activity (Mythimna separata [1]) was 80%, the Activity (Mythimna separata [2]) was 100% and the Activity (Mythimna separata [3]) was 100%. The Activity (Mythimna separata [4]) was 100% and the Activity (Mythimna separata [5]) was 100%.

`Cc1cc(C)cc(C(=O)N(NC(=O)c2cccc3c2CCCO3)C(C)(C)C)c1` showed an Activity (Plutella xylostella [6]) of 0%, an Activity (Spodoptera exigua [7]) of 0% and an Activity (Ostrinia nubilalis) of 0%. The Activity (Mythimna separata [5]) was 30%.

With `Cc1cc(C)cc(C(=O)N(NC(=O)c2ccc3c(c2C)CCCO3)C(C)(C)C)c1` [CHROMAFENOZIDE] the Activity (Plutella xylostella [8]) was 100%, the Activity (Plutella xylostella [6]) was 100% and the Activity (Spodoptera exigua [9]) was 100%. For the same molecule, the Activity (Spodoptera exigua [10]) was 100%, the Activity (Spodoptera exigua [7]) was 100% and the Activity (Mythimna separata [1]) was 100%. It also gave an Activity (Mythimna separata [2]) of 100%, an Activity (Mythimna separata [3]) of 100% and an Activity (Spodoptera exigua [11]) of 100%. For the same molecule, the Activity (Ostrinia nubilalis) was 100%, the Activity (Plutella xylostella [12]) was 100% and the Activity (Mythimna separata [4]) was 100%. The Activity (Mythimna separata [5]) was 100%.

`Cc1cc(C)cc(C(=O)N(NC(=O)c2ccc3c(c2)OC(C)C3)C(C)(C)C)c1` (configuration not stated) was tested, and the Activity (Plutella xylostella [6]) was 80%, the Activity (Spodoptera exigua [9]) was 100% and the Activity (Spodoptera exigua [10]) was 90%. It also gave an Activity (Spodoptera exigua [7]) of 100%, an Activity (Mythimna separata [1]) of 70% and an Activity (Mythimna separata [2]) of 100%. For the same molecule, the Activity (Mythimna separata [3]) was 100%, the Activity (Spodoptera exigua [11]) was 100% and the Activity (Ostrinia nubilalis) was 60%. The Activity (Mythimna separata [4]) was 100% and the Activity (Mythimna separata [5]) was 100%.

`Cc1cc(C)cc(C(=O)N(NC(=O)c2cccc3c2OCCO3)C(C)(C)C)c1` showed an Activity (Mythimna separata [5]) of 0%.

`Cc1cc2c(C(=O)NN(C(=O)c3cc(Cl)cc(Cl)c3)C(C)(C)C)cccc2o1` showed an Activity (Mythimna separata [5]) of 0%.

`Cc1cc(C)cc(C(=O)N(NC(=O)C2CCCCC2)C(C)(C)C)c1` gave an Activity (Mythimna separata [2]) of 100%, an Activity (Mythimna separata [3]) of 20% and an Activity (Mythimna separata [5]) of 100%.

Molecule `Cc1cc(C)cc(C(=O)N(NC(=O)c2cccc3c2OCO3)C(C)(C)C)c1` has an Activity (Plutella xylostella [6]) of 0%, an Activity (Spodoptera exigua [7]) of 100% and an Activity (Mythimna separata [2]) of 100%. The Activity (Mythimna separata [3]) was 100%, the Activity (Spodoptera exigua [11]) was 80% and the Activity (Ostrinia nubilalis) was 30%. The Activity (Mythimna separata [4]) was 30% and the Activity (Mythimna separata [5]) was 100%.

In the case of `Cc1cc(C)cc(C(=O)N(NC(=O)c2ccc3c(c2C)OC(C)C3)C(C)(C)C)c1` (configuration not stated) [FUXIAN], the Activity (Plutella xylostella [8]) is reported as 100%, the Activity (Plutella xylostella [6]) is reported as 100% and the Activity (Spodoptera exigua [9]) is reported as 100%. For the same molecule, the Activity (Spodoptera exigua [10]) was 90%, the Activity (Spodoptera exigua [7]) was 100% and the Activity (Mythimna separata [1]) was 100%. It also gave an Activity (Mythimna separata [2]) of 100%, an Activity (Mythimna separata [3]) of 100% and an Activity (Spodoptera exigua [11]) of 100%. The Activity (Ostrinia nubilalis) was 100%, the Activity (Plutella xylostella [12]) was 100% and the Activity (Mythimna separata [4]) was 100%. It also gave an Activity (Mythimna separata [5]) of 100%.

With `Cc1cc(C)cc(C(=O)N(NC(=O)c2cccc3oc(C)cc23)C(C)(C)C)c1` the Activity (Plutella xylostella [6]) was 50%, the Activity (Spodoptera exigua [7]) was 70% and the Activity (Ostrinia nubilalis) was 40%. The Activity (Mythimna separata [5]) was 80%.

With `Cc1cc2c(C(=O)NN(C(=O)c3cccc(Cl)c3)C(C)(C)C)cccc2o1` the Activity (Mythimna separata [5]) was 0%.

With `Cc1cc2c(C(=O)NN(C(=O)c3ccc(Cl)cc3)C(C)(C)C)cccc2o1` the Activity (Mythimna separata [5]) was 0%.

Molecule `Cc1cc2c(C(=O)NN(C(=O)c3ccccc3Cl)C(C)(C)C)cccc2o1` has an Activity (Mythimna separata [5]) of 0%.

Work on `COc1cccc(C(=O)NN(C(=O)c2cc(C)cc(C)c2)C(C)(C)C)c1C` [METHOXYFENOZIDE] yielded an Activity (Plutella xylostella [8]) of 100%, an Activity (Plutella xylostella [6]) of 100% and an Activity (Spodoptera exigua [9]) of 100%. For the same molecule, the Activity (Spodoptera exigua [10]) was 100%, the Activity (Spodoptera exigua [7]) was 100% and the Activity (Mythimna separata [1]) was 100%. It also gave an Activity (Mythimna separata [2]) of 100%, an Activity (Mythimna separata [3]) of 100% and an Activity (Spodoptera exigua [11]) of 100%. For the same molecule, the Activity (Ostrinia nubilalis) was 100%, the Activity (Plutella xylostella [12]) was 100% and the Activity (Mythimna separata [4]) was 100%. It also gave an Activity (Mythimna separata [5]) of 100%.

Molecule `Cc1cc(C)cc(C(=O)N(NC(=O)c2ccc3cc(C)oc3c2)C(C)(C)C)c1` has an Activity (Plutella xylostella [8]) of 100%, an Activity (Plutella xylostella [6]) of 100% and an Activity (Spodoptera exigua [9]) of 100%. It also gave an Activity (Spodoptera exigua [10]) of 90%, an Activity (Spodoptera exigua [7]) of 100% and an Activity (Mythimna separata [1]) of 50%. For the same molecule, the Activity (Mythimna separata [2]) was 100%, the Activity (Mythimna separata [3]) was 100% and the Activity (Spodoptera exigua [11]) was 100%. It also gave an Activity (Ostrinia nubilalis) of 40%, an Activity (Plutella xylostella [12]) of 70% and an Activity (Mythimna separata [4]) of 100%. It also gave an Activity (Mythimna separata [5]) of 100%.

`Cc1cc(C)cc(C(=O)N(NC(=O)c2cccc3c2CC(C)O3)C(C)(C)C)c1` (configuration not stated) showed an Activity (Plutella xylostella [8]) of 100%, an Activity (Plutella xylostella [6]) of 100% and an Activity (Spodoptera exigua [9]) of 100%. It also gave an Activity (Spodoptera exigua [10]) of 80%, an Activity (Spodoptera exigua [7]) of 100% and an Activity (Mythimna separata [1]) of 60%. It also gave an Activity (Mythimna separata [2]) of 100%, an Activity (Mythimna separata [3]) of 100% and an Activity (Spodoptera exigua [11]) of 100%. It also gave an Activity (Ostrinia nubilalis) of 70%, an Activity (Plutella xylostella [12]) of 50% and an Activity (Mythimna separata [4]) of 100%. The Activity (Mythimna separata [5]) was 100%.

`Cc1cc(C)cc(C(=O)N(NC(=O)C2CCCC3OC(C)CC32)C(C)(C)C)c1` (configuration not stated) was tested, and the Activity (Mythimna separata [5]) was 0%.

For `Cc1cc2c(C(=O)NN(C(=O)c3cc([N+](=O)[O-])cc([N+](=O)[O-])c3)C(C)(C)C)cccc2o1`, the Activity (Mythimna separata [5]) was 0%.
